We go through three molecules from patent publication US12605539B2, “Methods and systems for delivering drugs through skin of a body” (PASSPORT TECHNOLOGIES, INC., priority 2019, dated 2026).

Holding throughout (assay type): in vivo, hairless Guinea pigs
Data set [1] can be described thus: Blood concentration of polysaccharide (Fondaparinux) after microporation patch (FIG. 13). The note with it: 4 ms pulses. On the procedure: The patch 102 used for FIG. 13 graphs 1300 and 1320 has a nonwoven matrix, a thickness of 180 μm, weight of 18 g/m^2, WHC of 17 mg/cm^2, a drug of 0.01 mg/cm^2, and a total solids level of 6.1 mg/cm^2. An energy pulse of 6.3 mJ and 5.2 mJ per filament to create between about 200 and 400 pathways via microporation having a 1 cm^2 treated area of between about 5 and 10% per square centimeter of skin, respectively.
(§1) The graph 1300 includes the concentration of the polysacharride (for example, Fondaparinux) in micrograms/milliliter (μg/mL) along the y-axis and time in hours (hr) along the x-axis. […] The line 1302 represents the patch 102 having a formulation of 2.5 mg of the polysacharride applied with the patch 102 and microporation parameters described above. The line 1304 represents the patch 102 having a formulation of 5.0 mg of the polysacharride applied with the patch 102 and microporation parameters described above. The line 1306 represents the patch 102 having a formulation of 7.5 mg of the polysacharride applied with the patch 102 and microporation parameters described above. Each of the three lines 1302, 1304, and 1306 follow the same general trend of increasing to a peak concentration value and then gradually decreasing in concentration. The line 1306 has the highest concentration values, followed by line 1304 and then line 1302.
as §1, with “1320” for “1300”, “1322” for “1302”, “1324” for “1304”, “1326” for “1306”, “1322, 1324,” for “1302, 1304,”, “1322.” for “1302.”

A short description of data set [2]: Blood concentration of peptide (Teriparatide) after microporation patch (FIG. 17). The note with it: hairless, guinea pig, topical, API 0.2 mg/cm^2 + 0.5 mg sucrose; for bioavailability: read-out: bioavailability (BA); for Cmax: read-out: maximum concentration (Cmax). On the procedure:
Table 15 identifies two groups (group 4 and group 6) that both use stainless steel filaments 200 and create 200 and 400 pathways, respectively, having applied an energy pulse of 9.3 mJ per filament with a treated area of about 10% per square centimeter of skin for 0.5 cm2 and 1.0 cm^2, respectively. The patch 102 used for the administration of the peptide shown in graph 1700 has a thickness of 38 μm, a weight of 12 g/m^2, a WHC of 4 mg/cm^2, an API of 0.2 mg/cm^2, and a total solid weight of about 0.7 mg/cm^2.
The graph 1700 includes the concentration of the peptide in ng/mL along the y-axis and time in hours (hr) along the x-axis. […] The line 1702 represents the patch 102 and microporation parameters of group 4 described above. The line 1704 represents the patch 102 and microporation parameters of group 6 described above.

Data set [3] can be described thus: Blood concentration of Somatropin after microporation patch (FIG. 18). As to conditions: patch 0.5 mg, 1.0 cm^2. The text has this: The microporation occurs according to the parameters in Table 17. […] 200 Wide filaments are double the width of standard one (2×50 micrometers) so the energy pulse of 5.2 mJ and 9.3 mJ per filament, thus providing the same current density/flux, and similar power used.
The graph 1800 includes the concentration of the peptide in ng/mL along the y-axis and time in hours (hr) along the x-axis. […] The line 1802 represents the group 1 parameters from Tables 17 and 18. The line 1804 represents the group 2 parameters from Tables 17 and 18. The line 1806 represents the group 3 parameters from Tables 17 and 18. The line 1808 represents the group 4 parameters from Tables 17 and 18. Each of the four lines 1802, 1804, 1806, and 1808 follow the same general trend of increasing to a peak concentration value and then gradually decreasing in concentration. The line 1808 generally has the highest concentration values, followed by line 1802, then line 1804, and finally line 1806. It is noted that the line 1804 exceeds line 1806 from between about 2 hours to about 3 hours.

Setting [4] is: 0.2 mg/cm^2, group 4: 200 pores, 0.5 cm^2, 9.3 mJ/filament.
[5] abbreviates: 0.2 mg/cm^2, group 6: 400 pores, 1.0 cm^2, 9.3 mJ/filament.
Where [6] appears, read: group 1: 400 pores, 5.7 mJ/filament (Table 17).
Setting [7] is: group 2: 400 pores, 9.3 mJ/filament.
Where [8] appears, read: group 3: 200 wide pores, 5.2 mJ/filament.
[9] abbreviates: group 4: 200 wide pores, 9.3 mJ/filament.

As usually defined, the AUC is the area under the concentration-time curve, a measure of exposure. As to `CO[C@H]1O[C@H](COS(=O)(=O)O)[C@@H](O[C@@H]2O[C@@H](C(=O)O)[C@@H](O[C@H]3O[C@H](COS(=O)(=O)O)[C@@H](O[C@@H]4O[C@H](C(=O)O)[C@@H](O[C@H]5O[C@H](COS(=O)(=O)O)[C@@H](O)[C@H](O)[C@H]5NS(=O)(=O)O)[C@H](O)[C@H]4O)[C@H](OS(=O)(=O)O)[C@H]3NS(=O)(=O)O)[C@H](O)[C@H]2OS(=O)(=O)O)[C@H](O)[C@H]1NS(=O)(=O)O` [Fondaparinux], the “area under the curve (AUC)” value in data set [1] (patch 2.5 mg, 200 pathways) came out at 72800 ng·h/mL. Moreover, the bioavailability was 170.9% in data set [1] (patch 2.5 mg, 200 pathways); 228.5% in data set [1] (patch 2.5 mg, 400 pathways); 118.4% in data set [1] (patch 5.0 mg, 200 pathways); 146.9% in data set [1] (patch 5.0 mg, 400 pathways); 119.2% in data set [1] (patch 7.5 mg, 200 pathways); 114.1% in data set [1] (patch 7.5 mg, 400 pathways). In addition, the maximum concentration in data set [1] (patch 2.5 mg, 200 pathways) was found to be 5.1 µg/mL; in data set [1] (patch 2.5 mg, 400 pathways), 8.0 µg/mL; in data set [1] (patch 5.0 mg, 200 pathways), 6.7 µg/mL; in data set [1] (patch 5.0 mg, 400 pathways) it was 10.5 µg/mL; in data set [1] (patch 7.5 mg, 200 pathways), 9.1 µg/mL; in data set [1] (patch 7.5 mg, 400 pathways), 11.5 µg/mL. The AUC in data set [1] (patch 2.5 mg, 400 pathways) stood at 97300 ng·h/mL; in data set [1] (patch 5.0 mg, 200 pathways) it was 100900 ng·h/mL; in data set [1] (patch 5.0 mg, 400 pathways) it was 125200 ng·h/mL; in data set [1] (patch 7.5 mg, 200 pathways), 152300 ng·h/mL; in data set [1] (patch 7.5 mg, 400 pathways) it was 145800 ng·h/mL.

Consider `CC[C@H](C)[C@H](NC(=O)[C@H](CCC(=O)O)NC(=O)[C@H](CO)NC(=O)[C@@H](NC(=O)[C@@H](N)CO)C(C)C)C(=O)N[C@@H](CCC(N)=O)C(=O)N[C@@H](CC(C)C)C(=O)N[C@@H](CCSC)C(=O)N[C@@H](Cc1cnc[nH]1)C(=O)N[C@@H](CC(N)=O)C(=O)N[C@@H](CC(C)C)C(=O)NCC(=O)N[C@@H](CCCCN)C(=O)N[C@@H](Cc1cnc[nH]1)C(=O)N[C@@H](CC(C)C)C(=O)N[C@@H](CC(N)=O)C(=O)N[C@@H](CO)C(=O)N[C@@H](CCSC)C(=O)N[C@@H](CCC(=O)O)C(=O)N[C@@H](CCCN=C(N)N)C(=O)N[C@H](C(=O)N[C@@H](CCC(=O)O)C(=O)N[C@@H](Cc1c[nH]c2ccccc12)C(=O)N[C@@H](CC(C)C)C(=O)N[C@@H](CCCN=C(N)N)C(=O)N[C@@H](CCCCN)C(=O)N[C@@H](CCCCN)C(=O)N[C@@H](CC(C)C)C(=O)N[C@@H](CCC(N)=O)C(=O)N[C@@H](CC(=O)O)C(=O)N[C@H](C(=O)N[C@@H](Cc1cnc[nH]1)C(=O)N[C@@H](CC(N)=O)C(=O)N[C@@H](Cc1ccccc1)C(=O)O)C(C)C)C(C)C` [Teriparatide], for which, in data set [2] (setting [4]), the AUC turned out to be 3260 ng·h/mL, the bioavailability worked out at 37.4% and the Cmax came to 9.16 ng/mL. In data set [2] (setting [5]), the AUC was found to be 2210 ng·h/mL, the bioavailability was 25.4% and the Cmax worked out at 11.2 ng/mL.

The term Tmax denotes the time at which the peak concentration occurs. As for Somatropin, in data set [3] (setting [6]), the AUC worked out at 87.1 ng·h/mL, the Cmax was found to be 20.4 ng/mL, the Tmax came out at 1.3 h and the “bioavailability (BA)” value is 35.8%. In data set [3] (setting [7]), the AUC worked out at 90.1 ng·h/mL, the Cmax was determined as 16.1 ng/mL, the Tmax came out at 1.8 h and the “bioavailability (BA)” value was 37.0%. For the same molecule, in data set [3] (setting [8]), the AUC is 78.1 ng·h/mL, the Cmax is listed as 16.4 ng/mL, the Tmax worked out at 1.5 h and the “bioavailability (BA)” value was 32.1%. In addition, in data set [3] (setting [9]), the AUC came out at 94.9 ng·h/mL, the Cmax came out at 22.6 ng/mL, the Tmax was determined as 1.5 h and the “bioavailability (BA)” value is given as 39.0%.
